# Data published in ChEMBL document CHEMBL1157255, “Flavan-4-ol Glycosides from the Rhizomes of Abacopteris penangiana” (J Nat Prod, 2006).
# Test system: HepG2
# Test: Cytotoxicity against human HepG2 cells by MTT assay
# Type: functional, cell-based
row,SMILES,IC50 [µg/mL]
1,COc1ccc([C@@H]2C[C@@H]3O[C@H]4[C@H](Oc5c(C)c(O)c(C)c(c53)O2)O[C@H](CO)[C@@H](O)[C@@H]4O)cc1 [ABACOPTERIN C],4
2,COc1ccc([C@@H]2C[C@@H](O)c3c(c(C)c(O[C@@H]4O[C@H](CO)[C@@H](O)[C@H](O)[C@H]4O)c(CO)c3O[C@@H]3O[C@H](CO)[C@@H](O)[C@H](O)[C@H]3O)O2)cc1 [TRIPHYLLIN A],5.7
3,COc1ccc([C@@H]2C[C@@H]3O[C@H]4[C@H](Oc5c(C)c(O)c(C)c(c53)O2)O[C@H](CO)[C@@H](O)[C@@H]4OC(C)=O)cc1,4.1
4,COc1ccc([C@@H]2C[C@@H]3O[C@H]4[C@H](Oc5c(C)c(O)c(C)c(c53)O2)O[C@H](COC(C)=O)[C@@H](O)[C@@H]4O)cc1,3.5
5,O=c1[nH]cc(F)c(=O)[nH]1 [FLUOROURACIL],1.3
6,COc1ccc([C@@H]2C[C@@H](O)c3c(c(C)c4c(c3O[C@@H]3O[C@H](CO)[C@@H](O)[C@H](O)[C@H]3O)CO[C@H]3[C@H](O4)O[C@H](CO)[C@@H](O)[C@@H]3O)O2)cc1,3.1
